Legend:
serotonin uptake = assay: in vitro [3H]serotonin uptake inhibition, rat brain preparation; assay type: biochemical; details: concentration of 1×10^-6 moles
Description: (§1) For example, the ability of the present compounds to block substantially the uptake of norepinephrine and serotonin, characteristic properties of antidepressants, can be shown in the in vitro test using rat brain preparation as described by M. H. Kannengiesser, P. Hunt and J.-P. Raynaud, Biochem. Pharmacol., 22, 73 (1973); see also E. G. Shaskan and S. H. Snyder, J. Pharmacol. Exptl. Therap., 175, 404 (1970), and J. Glowinski and L. L. Iversen, J. Neurochemistry, 13, 655 (1966).

norepinephrine uptake = assay: in vitro [3H]norepinephrine uptake inhibition, rat brain preparation; assay type: biochemical; details: concentration of 1×10^-6 moles
Description: as §1

**Q.** How did the “inhibition of [3H]serotonin uptake” value (serotonin uptake) turn out when `CCCN(CCC)C1CCc2ccc3cccnc3c2C1` (centres unmarked) [7,8,9,10-Tetrahydro-N,N-dipropylbenzo[h]quinolin-9-amine] was run?
**A.** 57%

**Q.** And the “inhibition of [3H]norepinephrine uptake” value (norepinephrine uptake)?
**A.** 52%

From patent US4521423A, “7,8,9,10-Tetrahydrobenzo[h]quinolin-9-amine derivatives and compositions and methods for treating depression employing them” (Ayerst, McKenna & Harrison, Ltd., priority 1983, dated 1985)
